From ChEMBL document CHEMBL5625205, “3-Methoxy-2-phenylimidazo[1,2-b]pyridazines highly active against Mycobacterium tuberculosis and Mycobacterium marinum” (Eur J Med Chem, 2023)
In brackets after ≈: the same amount, converted by molar mass. Activity calls are given as the source filed them. The calls are words filed in the database; no cut-off is given here.

Assays:
[1] = tested on: Mycobacterium marinum; assay: Antimycobacterial activity against Mycobacterium marinum assessed as inhibition of bacterial growth measured for 5 days by luminometer; assay type: functional; conditions: 120 h, time 5 day
[2] = tested on: Mycobacterium tuberculosis; assay: Antimycobacterial activity against Mycobacterium tuberculosis H37Ra assessed as inhibition of bacterial growth measured for 5 days by luminometer; assay type: functional; conditions: 120 h, time 5 day
[3] = tested on: Mycobacterium tuberculosis; assay: Antimycobacterial activity against Mycobacterium tuberculosis H37Ra infected in mouse assessed as reduction in relative light unit in lung at 30 to 300 mg/kg,po administrated once daily for 5 days; assay type: functional, organism-based; conditions: dose 30-300 mg/kg, time 5.0 day
[4] = Metabolic stability in mouse liver microsomes assessed as intrinsic clearance incubated for 60 mins in presence of NADPH; assay type: ADME, Microsome; conditions: read-out: CLH
[5] = Kinetic solubility of compound in DMSO at pH 2 incubated for 30 mins by laser nephelometry; assay type: physicochemical; conditions: read-out: Kinetic_solubility
[6] = Kinetic solubility of compound in DMSO at pH 6.5 incubated for 30 mins by laser nephelometry; assay type: physicochemical; conditions: read-out: Kinetic_solubility
[7] = Metabolic stability in mouse liver microsomes assessed as half life incubated for 60 mins in presence of NADPH; assay type: ADME, Microsome
[8] = Octanol-water distribution coefficient, logD of the compound at pH 7.4 by HPLC analysis; assay type: physicochemical

SMILES	MIC90 [1]	MIC90 [2]	other results
COc1c(-c2ccc(F)cc2F)nc2ccc(SCc3ccsc3)nn12	2.57 µM (≈ 1 µg/mL)	10.3 µM (≈ 4.01 µg/mL)	–
COc1cccc(CSc2ccc3nc(-c4ccc(F)cc4F)cn3n2)c1	261 µM (≈ 100 µg/mL)	261 µM (≈ 100 µg/mL)	–
COc1c(-c2ccccc2)nc2ccc(SCc3ccccn3)nn12	2.87 µM (≈ 1 µg/mL)	5.74 µM (≈ 2 µg/mL)	–
CN(Cc1ccccc1)c1ccc2nc(-c3ccc(F)cc3)c(O)n2n1	144 µM (≈ 50.2 µg/mL)	144 µM (≈ 50.2 µg/mL)	–
COc1cccc(COc2ccc3nc(-c4cccc(C(F)(F)F)c4)c(OC)n3n2)c1	–	> 230 µM	–
COc1cccc(CSc2ccc3nc(-c4ccc(F)cc4F)c(CN4CCOCC4)n3n2)c1	207 µM (≈ 99.9 µg/mL)	207 µM (≈ 99.9 µg/mL)	–
COc1cccc(CSc2ccc3nc(-c4ccc(Br)cc4)c(OC)n3n2)c1	11 µM (≈ 5.02 µg/mL)	11 µM (≈ 5 µg/mL)	–
CCOc1c(-c2ccccc2F)nc2ccc(SCc3cccc(OC)c3)nn12	3.05 µM (≈ 1.25 µg/mL)	3.05 µM (≈ 1.25 µg/mL)	–
COCCOc1c(-c2ccccc2)nc2ccc(SCc3cccc(OC)c3)nn12	119 µM (≈ 50.2 µg/mL)	29.7 µM (≈ 12.5 µg/mL)	–
c1ccc(CSc2ccc3nc(-c4ccccc4)cn3n2)cc1	> 315 µM	> 315 µM	–
COc1c(Cc2ccccc2)nc2ccc(SCc3cccc(C)c3)nn12	26.6 µM (≈ 9.99 µg/mL)	87.9 µM (≈ 33 µg/mL)	–
CCOc1c(-c2ccccc2)nc2ccc(SCc3ccccc3)nn12	69.2 µM (≈ 25 µg/mL)	69.2 µM (≈ 25 µg/mL)	–
COc1cccc(CNc2ccc3nc(-c4ccc(C)cc4)c(OC)n3n2)c1	13.4 µM (≈ 5.02 µg/mL)	13.4 µM (≈ 5.02 µg/mL)	–
N#Cc1c(-c2ccccc2)nc2ccc(OCc3ccccc3)nn12	> 300 µM	> 300 µM	–
Oc1ccccc1-c1nc2ccc(SCc3ccccc3)nn2c1Br	243 µM (≈ 100 µg/mL)	243 µM (≈ 100 µg/mL)	–
CN(Cc1ccccc1)c1ccc2nc(-c3ccc(Cl)cc3)c(O)n2n1	> 274 µM	274 µM (≈ 100 µg/mL)	–
COc1c(-c2ccccc2)nc2ccc(SCc3nc4ccccc4n3C)nn12	250 µM (≈ 100 µg/mL)	24.9 µM (≈ 10 µg/mL)	–
COc1c(-c2cccc([N+](=O)[O-])c2)nc2ccc(N(C)Cc3ccccc3)nn12	> 250 µM	> 250 µM	–
COc1c(-c2ccccc2)nc2ccc(SCc3ccsc3)nn12	1.41 µM (≈ 0.498 µg/mL)	0.7 µM (≈ 0.247 µg/mL)	–

SMILES	MIC90 [1]	MIC90 [2]	other results
CN(C)Cc1c(-c2ccccc2)nc2ccc(SCc3ccccc3)nn12	13.4 µM (≈ 5.02 µg/mL)	6.68 µM (≈ 2.5 µg/mL)	–
COc1cccc(CSc2ccc3nc(-c4ccc(Cl)cc4)c(OC)n3n2)c1	3.03 µM (≈ 1.25 µg/mL)	9.71 µM (≈ 4 µg/mL)	–
COc1cccc(CSc2ccc3nc(-c4ccc(F)cc4)cn3n2)c1	2.74 µM (≈ 1 µg/mL)	27.4 µM (≈ 10 µg/mL)	–
Cc1c(-c2ccccc2)nc2ccc(OCc3ccccc3)nn12	317 µM (≈ 100 µg/mL)	317 µM (≈ 100 µg/mL)	–
COc1c(-c2ccccc2)nc2ccc(SCc3ccccc3Cl)nn12	–	> 260 µM	–
COc1cccc(CNc2ccc3nc(-c4cccc([N+](=O)[O-])c4)c(OC)n3n2)c1	> 240 µM	> 240 µM	–
COc1c(-c2ccc(F)cc2)nc2ccc(SCc3ccsc3)nn12	5.38 µM (≈ 2 µg/mL)	26.9 µM (≈ 9.99 µg/mL)	–
COc1c(-c2ccc(F)cc2)nc2ccc(N(C)Cc3ccccc3)nn12	1.38 µM (≈ 0.5 µg/mL)	1.38 µM (≈ 0.5 µg/mL)	–
COc1ccc(CSc2ccc3nc(-c4ccc(F)cc4)c(OC)n3n2)cc1	12.6 µM (≈ 4.98 µg/mL)	6.32 µM (≈ 2.5 µg/mL)	–
COc1cccc(CS(=O)(=O)c2ccc3nc(-c4ccc(F)cc4F)c(OC)n3n2)c1	225 µM (≈ 100 µg/mL)	225 µM (≈ 100 µg/mL)	–
COc1cccc(CNc2ccc3nc(-c4cccc(F)c4)c(OC)n3n2)c1	26.4 µM (≈ 9.99 µg/mL)	52.9 µM (≈ 20 µg/mL)	–
CN(Cc1ccccc1)c1ccc2nc(-c3ccc(F)cc3F)c(O)n2n1	> 273 µM	273 µM (≈ 100 µg/mL)	–
COc1cccc(COc2ccc3nc(-c4ccc(C(F)(F)F)cc4)c(OC)n3n2)c1	> 230 µM	> 230 µM	–
COc1cccc(CSc2ccc3nc(-c4ccc(F)cc4)c(OC)n3n2)c1	0.63 µM (≈ 0.249 µg/mL)	0.63 µM (≈ 0.249 µg/mL)	Activity [3]: inactive; microsomal CLint [4]: > 866 µL/min/mg; solubility kinetic at 0.5 h [5]: 1.6 µg/mL (≈ 4.05 µM); solubility kinetic at 0.5 h [6]: < 1.6 µg/mL; half-life [7]: < 2 min; logD [8]: 4.9
COc1c(-c2ccc(Br)cc2)nc2ccc(N(C)Cc3ccccc3)nn12	11.8 µM (≈ 5 µg/mL)	5.91 µM (≈ 2.5 µg/mL)	–
COc1cccc(CSc2ccc3nc(-c4ccc(F)cc4)c(CN(C)C)n3n2)c1	47.3 µM (≈ 20 µg/mL)	23.7 µM (≈ 10 µg/mL)	–
COCCOc1c(-c2ccccc2)nc2ccc(SCc3ccccc3)nn12	63.9 µM (≈ 25 µg/mL)	255 µM (≈ 99.8 µg/mL)	–
COc1cccc(CNc2ccc3nc(-c4ccc(C(F)(F)F)cc4)c(OC)n3n2)c1	23.3 µM (≈ 9.98 µg/mL)	11.7 µM (≈ 5.01 µg/mL)	–
COc1c(-c2ccccc2)nc2ccc(SC)nn12	36.9 µM (≈ 10 µg/mL)	18.4 µM (≈ 4.99 µg/mL)	–
